# What was measured:
# [1] = Intra-cerebral and blood concentrations of ^18 F-AFDG and its metabolites after intravenous injection; type: in vivo; conditions: mice
# Experimental: Mice were given an intravenous injection of 0.05 ml solution of 0.5 mM ^18 F-AFD in DMSO.
# [2] = Kinetic changes in radioactivities in the blood and the cerebral tissue after intravenous injection; type: in vivo, mice (ddy strain); conditions: mice, i.v. tail vein
# Experimental: Normal male mice of the ddy strain at 6 weeks of age were injected intravenously through tail vein with 0.05 ml of […] ^18 F in DMSO solution.
# Kinetic changes in radioactivities in the blood and the cerebral tissue of the mice injected with ^18 F-AFDG.
"proportion that reached the cerebral tissue ([1]; i.v., 0.05 ml of 0.5 mM in DMSO, within 0.5 minute following administration)","time up to which levels of radioactivity in the cerebral tissue increased ([2]; 0.05 ml in DMSO, FIG. 1) [min]","time of emergence of intra-cerebral metabolites ([1]; i.v. ^18 F-AFDG, 0.5 mM in DMSO, cerebral tissue) [min]","concentration in the cerebral tissue over time ([1]; i.v. ^18 F-AFDG, after 0.5 minute, FIG. 3)",Compound,"extent metabolized into ^18 F-FDG-6-phosphate ([1]; i.v., cerebral tissue, at 180 minutes)","blood radioactivity levels ([2]; 0.05 ml in DMSO, following administration)","radioactivity in the cerebral tissue after administration ([2]; 0.05 ml in DMSO, immediately after administration)",radioactivity in the cerebral tissue compared with blood ([2]; at 10 minutes of administration and thereafter),"proportion among ^18 F-AFDG and metabolites in the cerebral tissue ([1]; i.v. ^18 F-AFDG, at 5, 60 and 180 minutes, compared with blood, FIGS. 4 and 5)"
approximately 40%,30,,,"CC(=O)OC[C@H]1OC(OC(C)=O)[C@H]([18F])[C@@H](OC(C)=O)[C@@H]1OC(C)=O (stereo partly drawn) [^18 F-AFDG, 1,3,4,6-tetra-O-acetyl-2-^18 F-D-glucose]",the entire ^18 F-AFDG was found to be metabolized into ^18 F-FDG-6-phosphate,decreased consistently following administration,could be detected in the cerebral tissue immediately after administration,higher in the cerebral tissue than in the blood,
,,≤ 0.5,raised markedly,O=P(O)(O)OC[C@H]1OC(O)[C@H]([18F])[C@@H](O)[C@@H]1O (stereo partly drawn) [^18 F-FDG-6-phosphate],,,,,highest proportion in the cerebral tissue
